Reference: patent US20080293070A1, “Markers for Memory T Cells and Uses Thereof” (priority 2005, published 2008)

Tests used:
Type in all cases: cell-based, human
FasL = FasL expression in CD4+ T cells after AKT and IKK inhibitors, Western blot or flow cytometry; conditions: data not shown
Bim = Bim expression in CD4+ T cells in response to AKT and IKK inhibitors, Western blot; conditions: 24 h, AKT-IV 1.6 μM, wedelolactone 100 μM
Protocol: (§1) FIG. 7. AKT and IKK mediate FOXO3a phosphorylation and survival in CD4^+ T cell. (A) Regulation of FOXO3a phosphorylation. Purified CD4^+ T Cells were pre-treated for 1 hour with kinase inhibitors (AKT-VI, AKT inhibitor: 10 μM; STO-609, CamKK inhibitor: 5 μg/ml; Wedelolactone, IKK inhibitor: 100 μM and U0126, MEK1/2 inhibitor: 50 μM). pFoxo3a (S253) was assessed. The results are representative of two independent experiments. (B) CD4^+ T cell susceptibility to apoptosis induced upon treatment with specific kinase inhibitors. CD4^+ T cells were cultured in the presence of kinase inhibitors for 24 hrs (U0126:100 μM; STO-609:10 μg/ml; Wedelolactone and AKT-IV as indicated). After 24 h, the proportion of Annexin-V^+, propidium iodide (PI)^+ cells was quantified by flow cytometry. […] Cells were analyzed by Western Blot (WB) using Bim specific antibodies. […] The levels of pAKT were assessed by flow cytometry in TCM- and TEM-gated subsets. The results are represented as the mean fold increase ±SD, calculated as (MFI of stimulated cells/MFI of un-stimulated cells) of five independent experiments. Values of p (determined by two-tailed T-test) are shown.
(§2) Western Blotting analysis. […] HRP activity was detected using an enhanced chemiluminescence detection procedure (ECL-plus detection system, Amersham Biosciences). […] Protein expression levels were expressed as a percentage of the highest signals obtained. […]

pFOXO3a (S253) = test: FOXO3a phosphorylation (S253) in CD4+ T cells after kinase inhibitors, Western blot; conditions: purified CD4+ T cells pre-treated 1 hour; AKT inhibitor 10 μM, Wedelolactone 100 μM
Protocol: as §1, §2

CD4+ T cells = test: Apoptosis of CD4+ T cells cultured with kinase inhibitors, Annexin-V flow cytometry; conditions: for proportion of Annexin-V+ cells: CD4+ T cells, 24 hrs with inhibitor; for inhibitor treatment concentration: concentration used to treat sorted TCM and TEM, what the IC50 refers to is not stated
Protocol: FIG. 7. AKT and IKK mediate FOXO3a phosphorylation and survival in CD4^+ T cell. (A) Regulation of FOXO3a phosphorylation. Purified CD4^+ T Cells were pre-treated for 1 hour with kinase inhibitors (AKT-VI, AKT inhibitor: 10 μM; STO-609, CamKK inhibitor: 5 μg/ml; Wedelolactone, IKK inhibitor: 100 μM and U0126, MEK1/2 inhibitor: 50 μM). pFoxo3a (S253) was assessed. The results are representative of two independent experiments. (B) CD4^+ T cell susceptibility to apoptosis induced upon treatment with specific kinase inhibitors. CD4^+ T cells were cultured in the presence of kinase inhibitors for 24 hrs (U0126:100 μM; STO-609:10 μg/ml; Wedelolactone and AKT-IV as indicated). After 24 h, the proportion of Annexin-V^+, propidium iodide (PI)^+ cells was quantified by flow cytometry. The results are depicted as a percentage of apoptotic cells within the total population and are representative of two independent experiments. (C) Bim expression levels in response to AKT and IKK inhibitors. CD4^+ T cells were treated with AKT-IV (1.6 μM) or wedelolactone (100 μM) for 24 h. Cells were analyzed by Western Blot (WB) using Bim specific antibodies. (D and E) Regulation of AKT and IKK phosphorylation in 4^+ memory subsets. (D) pIKKαβ (S176/180) protein levels in ex-vivo sorted TCM and TEM. […] (E) PBMCs, from healthy donors, were treated with H2O2 (5 mM) or Ig-cross-linked CD28 (2 Hg/ml) for 15 min at 37° C. and labeled with CD4, CD27, CD45RA and pAKT (S473) specific antibodies. The levels of pAKT were assessed by flow cytometry in TCM- and TEM-gated subsets. The results are represented as the mean fold increase ±SD, calculated as (MFI of stimulated cells/MFI of un-stimulated cells) of five independent experiments. Values of p (determined by two-tailed T-test) are shown.
(§3) Induction and quantification of apoptosis. Apoptotic cells were detected using annexin-V labeling according to the manufacturer's protocol (Biosource). The fluorescence signals were measured by flow cytometry using a BD LSRI flow cytometer (BD-Biosciences). Approximately 50,000-gated events were collected for each sample.
To confirm the importance of the phosphorylation of FOXO3a in memory T-cell survival, purified CD4^+ T cells were treated with different kinase-inhibitors, and apoptosis was assessed by flow cytometry using Annexin-V labeling. […] Moreover, we observed a significant upregulation of the levels of the pro-apoptotic molecule Bim, known to be a FOXO3a target, in cells treated with AKT or IKK inhibitors (three and eightfold respectively) (FIG. 7C). […] None of the other kinase-inhibitors tested induced apoptosis in CD4^+ T cells (FIG. 7B) even when used at much higher concentrations (data not shown). […]

pAKT (S473) = test: AKT phosphorylation (S473) in TCM- and TEM-gated PBMCs, PhosFlow; conditions: H2O2 5 mM, 15 min; TCM vs TEM
Protocol: as §1, with “shown. […]” for “shown.”
To assess the importance of AKT and IKK in the survival of memory T cells, we evaluated the expression of the phosphorylated forms of these proteins in TCM and TEM subsets. […]

TCM = test: Apoptosis of sorted TCM induced by kinase inhibitors, Annexin-V labeling; conditions: 24 h, AKT-IV 1.6 μM, wedelolactone 100 μM, n=2
Protocol: (§4) FIG. 8. Susceptibility of TCM and TEM to apoptosis induced by kinase inhibitors. Sorted TCM and TEM were cultured with or without AKT and IKK inhibitors as indicated. After 24 h, the percentage of apoptotic cells was quantified by Annexin-V-FITC labeling. Upper panel depict Results from a representative individual. Histogram plots show the percent of Annexin-V positive cells in TCM and TEM cells following a 24 h exposure to AKT or IKK-inhibitors. The dashed lines correspond to untreated cells while the plain lines correspond to cells treated with kinase-inhibitors. […] The fold increase of apoptosis is calculated as % of apoptotic cells in treated cells divided by the % of apoptotic cells in untreated cells.
as §3
(§5) After 24 h of treatment, the proportion of apoptotic cells was quantified using Annexin-V labeling (FIG. 8, top panel).

TEM = conditions: sorted TEM, 24 h; AKT-IV 1.6 μM, wedelolactone 100 μM; n=2
Protocol: as §4, §3, §5

pSTAT5a (Y694) = test: STAT5a phosphorylation in TCM and TEM in response to IL-2 or IL-7, flow cytometry
Protocol: (B, C and D) PBMCs from healthy donors were treated with IL-2 (100 U/ml) or IL-7 (10 ng/ml) for 15 min at 37° C. Cells were then labeled with Abs to CD4, CD27, CCR7, CD45RA and pSTAT5a. (B) Representative example of pSTAT5a expression levels. TCM-gated cells are represented in light grey and TEM-gated cells are represented in black. (C) Mean Fluorescence Intensity (MFI) of pSTAT5a level of expression measured in response to IL-2 or IL-7, in TCM and TEM (n=4). Mean pSTAT5a signal values are represented by black bars. P-values (determined by a two-tailed T-test) are shown (D) Expression level of CD127, CD25 and CD132 in ex-vivo TCM and TEM.
Flow cytometry analysis of STAT5a and AKT phosphorylation status. PBMCs were resuspended at 20 millions/ml in RPMI and incubated for 30 min in the presence of CCR7-FITC abs (20 μl/million cells) at room temperature. The cells were then washed and re-suspended at a cell concentration of 5 millions per ml in PBS and stimulated for 15 min at 37° C. in the presence of IL-2 (100 U/ml) or IL-7 (10 ng/ml). Following stimulation, the cells were fixed for 10 min at 37 degrees using cytofix buffer (BD Biosciences), pelleted and then permeabilized in PERM-III buffer (BD Biosciences) for 30 min on ice. […]
The phosphorylated form of STAT5a (Y694) (pSTAT5a) was quantified by flow cytometry.

[1] = system: pFOXO3a (S253, S315 and T32); test: FOXO3a phosphorylation in CD4+ T cells in response to TCR and cytokine engagement, Western blot; conditions: 30 min, IL-7 10 ng/ml, IL-2 100 U/ml
Protocol: (A) CD4^+ T cells were cultured in the presence of anti-CD3 (2 μg/ml), anti-CD28 (2 μg/ml), anti-CD3+CD28, IL-2 (100 U/ml), IL-7 (10 ng/ml), IFN-γ (50 μg/ml) or PMA (50 ng/ml) for 15 min and analyzed by Western Blot for pFOXO3a (S315 and S253) expression levels. The results are representative of two independent experiments. (B) CD4^+ T cells were cultured in the presence of anti-CD3/anti-CD28, IL-2 (100 U/ml), IL-7 (10 ng/ml) for 30 min and analyzed by Western Blot for pFOXO3a (T32) expression levels.
Western Blotting analysis. […] Cells were washed twice with PBS and re-suspended in lysis buffer containing 50 mM NaF and 1 mM sodium pyrophosphate. Proteins from total cell extracts (10 μg) were separated on SDS-PAGE and electrotransfered onto PVDF membranes (Roche, Indianapolis, Ind.). Membranes were incubated overnight at 4° C. with specific antibodies as described in the figure legends. Detection of the immune complexes was performed using horseradish peroxidase (HRP)-conjugated goat anti-mouse (1:2500) or goat anti-rabbit IgG antibodies (1:3000). HRP activity was detected using an enhanced chemiluminescence detection procedure (ECL-plus detection system, Amersham Biosciences). Membranes were subsequently stripped and restained with an anti-actin Abs (1:10000). […] Protein expression levels were expressed as a percentage of the highest signals obtained.

Row | Molecule | levels of FasL expression (FasL) | upregulation of Bim levels (Bim) | expression levels of pFOXO3a (S253), fold lower as compared to untreated cells (pFOXO3a (S253)) | proportion of Annexin-V+ cells (CD4+ T cells) | further results
1 | CC[n+]1c(/C=C/N(C)c2ccccc2)n(-c2ccccc2)c2ccc(-c3nc4ccccc4s3)cc21.[I-] [AKT-IV] | did not change | three | eightfold | increased in a dose-dependant fashion | inhibitor treatment concentration (CD4+ T cells): 1.6 µM
2 | OO [H2O2] | – | – | – | – | induction of pAKT (S473) (pAKT (S473)): higher in TCM than TEM
3 | COc1cc(O)c2c(c1)oc(=O)c1c3cc(O)c(O)cc3oc21 [Wedelolactone] | did not change | eightfold | 4.5 fold | increased in a dose-dependant fashion | inhibitor treatment concentration (CD4+ T cells; Homo sapiens, CD4+ T): 100 µM; increase in Annexin-V+ cells relative to untreated cells (TCM): eightfold; increase in Annexin-V+ cells relative to untreated cells (TEM): twofold
4 | IL-7: cytokine purchased from R&D systems (protein, UniProt P13232 26-177, looked up) Interleukin-7: DCDIEGKDGKQYESVLMVSIDQLLDSMKEIGSNCLNNEFNFFKRHICDANKEGMFLFRAARKLRQFLKMNSTGDFDLHLLKVSEGTTILLNCTGQVKGRKPAALGEAQPTKSLEENKSLKEQKKLNDLCFLKRLLQEIKTCWNKILMGTKEH | – | – | – | – | proportion of cells that up-regulated pSTAT5a, higher in TCM as compared to TEM (pSTAT5a (Y694); IL-7 10 ng/ml, 15 min, p<0.002): 30%±6.5; pSTAT5a response (pSTAT5a (Y694); both TCM and TEM, brief IL-7 treatment): upregulated pSTAT5a; levels of pFOXO3a at T32 [1]: threefold
